# Literature values, collected in patent US7825159B2, “Mixtures of aromatic esters for marking or tagging organic products, marker compositions comprising the same and manufacturing methods thereof” (United Color Manufacturing, Inc., priority 2006, dated 2010).
# Legend:
# [1] = with less than 28 wt. % n-octylpyrolidinone co-solvent, even with vigorous stirring
# [2] = with less than 28 wt. % n-octylpyrolidinone co-solvent
smiles,measurement,setting,value
CCCC(=O)Oc1ccc(C2(c3ccc(OC(=O)CCC)c(C)c3)OC(=O)c3ccccc32)cc1C [Cresolphthalein dibutyrate],Dispersion into diesel fuel,[1],will not disperse
same,Precipitation on standing overnight in the freezer,[2],precipitates
